# Experimental data reported in patent US20230414571A1, “APPLICATION OF SMALL-MOLECULE COMPOUND IN PREPARATION OF ANTITUMOR DRUG” (SOOCHOW UNIVERSITY, priority 2021, published 2023).
# Entries after “also recorded” stand apart in the source; their conditions may differ.
# Assays:
# U87MG tumor = U87MG tumor growth and survival in mice after various treatments; format: in vivo, nude mouse; conditions: for median survival time: mice with U87MG tumor, n=6 per group
# Excerpt: In all different experimental groups (a and b in FIG. 10), the overall survival (OS) of mice treated with TMZ and compound 27 is the best. […] However, mouse death caused by glioma is reduced only 20 days […] treatment. After this period of time, the survival rates of the in-situ U87 heterogeneous tumor of the two single drug groups decreases rapidly due to malignant glioma.
# [1] = Plasma pharmacokinetics in mice determined by GLMSD; format: in vivo, mouse; conditions: ip, TMZ injected into abdominal cavity of mouse, plasma, average of 8 mice
# Description: It can be seen from FIG. 8-1 that the GLMSD platform can specifically acquire the pharmacokinetic data of small-molecule compound 27. Competitive advantages of GLMSD in pharmacokinetic research: (1) a complete drug blood concentration curve of each individual may be tracked; and (2) the total number of mice used in the test is reduced. Since the blood sample consumption of the GLMSD method is low (10 μL of blood per time point), one mouse can be used for completing the entire pharmacokinetic curve (blood sampling at 11 time points within 24 hours, and the minimum interval being 0.25 hour) of a drug.
# Based on the advantage that the complete PK curve can be tested by means of the GLMSD, we observe that 3 (#2, #3 and #4) in 8 mice have the characteristic re-absorption peak of this small-molecule inhibitor at the time point of 8 h, and such a characteristic re-absorption peak hardly exists in other 5 mice. This significant phenomenon is related to drug uptake differences between individuals, prompting that compound 27 may re-enter blood circulation by means of a secondary absorption pathway. In the mode of continuous multiple administration (c in FIG. 8-2), pharmacokinetic data of compound 27 (40 mg/kg) was collected from each mouse every day (1, 3, 6, and 8 hours after last administration) for 5 days. For a single dose (a in FIG. 8-2) or a continuous multi-dose (d in FIG. 8-2) administration manner, a limitation of a conventional LC-MS technology lies in obtaining a single data point of pharmacokinetics of a drug by sacrificing one mouse, whereas GLMSD can break through this limitation by providing a complete pharmacokinetic curve based on a single mouse.
# hexokinase 2 (HK2) = target: T1, hexokinase 2 (HK2) (Homo sapiens, UniProt P52789); test: HK2 activity test on GLMSD platform (graphite dots MALDI-MS); format: biochemical; conditions: for inhibitory effect on the HK2: inhibition curves FIGS. 3-7, colorimetric kit and GLMSD; for inhibition at 20 µM: read-out: inhibition rate of HK2 activity
# T1 sequence (P52789 1-917): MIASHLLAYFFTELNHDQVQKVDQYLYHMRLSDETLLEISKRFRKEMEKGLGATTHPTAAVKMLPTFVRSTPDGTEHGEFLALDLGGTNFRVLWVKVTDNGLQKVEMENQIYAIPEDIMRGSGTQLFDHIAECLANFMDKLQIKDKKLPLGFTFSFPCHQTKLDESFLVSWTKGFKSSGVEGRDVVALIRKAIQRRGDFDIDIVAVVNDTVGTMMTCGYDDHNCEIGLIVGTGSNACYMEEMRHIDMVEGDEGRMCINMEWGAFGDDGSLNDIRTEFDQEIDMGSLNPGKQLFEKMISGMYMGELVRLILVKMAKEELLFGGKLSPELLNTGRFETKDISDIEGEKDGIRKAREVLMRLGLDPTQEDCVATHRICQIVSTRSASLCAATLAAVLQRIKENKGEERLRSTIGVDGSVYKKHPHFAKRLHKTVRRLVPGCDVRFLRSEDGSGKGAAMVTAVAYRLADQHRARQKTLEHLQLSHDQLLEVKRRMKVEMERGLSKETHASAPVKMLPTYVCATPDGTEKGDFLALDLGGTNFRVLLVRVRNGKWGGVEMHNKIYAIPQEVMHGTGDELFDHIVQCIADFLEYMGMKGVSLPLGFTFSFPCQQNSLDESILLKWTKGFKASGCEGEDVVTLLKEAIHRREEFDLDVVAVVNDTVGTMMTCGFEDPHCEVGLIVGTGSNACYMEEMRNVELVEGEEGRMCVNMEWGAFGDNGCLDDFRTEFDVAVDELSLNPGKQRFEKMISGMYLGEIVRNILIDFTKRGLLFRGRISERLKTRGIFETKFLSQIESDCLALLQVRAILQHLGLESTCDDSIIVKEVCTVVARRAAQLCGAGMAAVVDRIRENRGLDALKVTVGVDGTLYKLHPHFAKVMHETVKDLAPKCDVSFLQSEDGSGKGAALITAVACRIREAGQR
# Description: GDs were dispersed in water at a concentration of 1 mg/mL as a matrix solution to be used. A sample was prepared by using a quick-drying method: firstly, 1 μL of matrix solution was dropped onto a target plate, and after natural drying at a room temperature in a […], 1 μL of sample to be analyzed was dropped onto a surface of the dried matrix, and after the sample was naturally dried, mass spectrometry was directly performed:
# An instrument in the MALDI-MS was a Bruker Ultraflex III TOF/TOF mass spectrometer, which was mainly in a reflection positive and negative ion mode. Nd of 355 nm for instrument parameter: YAG laser had laser energy of 30% corresponding to 57 μJ per pulse (laser pulse duration: 3 ns), a laser spot size was about 50-100 μm, each sample was repeatedly tested four times, and 3000 laser spots were accumulated in each mass spectrum. All samples were measured under the same instrumental conditions.
# an inhibition rate=(1−B/A)×100%, where • A was: a glucose concentration in a pre-reaction solution without the inhibitor-a glucose concentration in a post-reaction solution without the inhibitor, • B was: a glucose concentration in a pre-reaction solution with the inhibitor-a glucose concentration in a post-reaction solution with the inhibitor, and • a glucose concentration in the reaction solution=(mass spectrum signal strength of [glucose+Na]+/mass spectrum signal strength of [glucose-1-^13C+Na]+)×known concentration of glucose-1-^13C.
# [2] = test system: cranial nerve glioma cell U87; test: Antiproliferative activity against cranial nerve glioma cell U87; format: cell-based; conditions: U87 cells, FIG. 14
# Excerpt: FIG. 14 is an antiproliferative activity test diagram of compound 8, compound 11, compound 13, and compound 21 against a cranial nerve glioma cell U87.
# [3] = small-molecule concentration of the inhibitor 20 μM, GLMSD
SMILES,median survival time (U87MG tumor) [days],inhibitory effect on the HK2 (hexokinase 2 (HK2)),inhibitory effect on U87 [2],inhibition at 20 µM (hexokinase 2 (HK2); [3]) [%],further results
"COc1ccc(CN2CCNCC2)c(OC)c1OC [TMZ, Trimetazidine, reference compound]",35,–,–,–,"glioma growth / survival rate, bioluminescence tracking (U87MG tumor; in situ U87-luciferase mice, compared with PBS): delays the growth of glioma; AUC(0-t) ([1]; read-out: AUC0-24 h): 247 µg·h/mL; Cmax ([1]; read-out: Cmax): 33700 ng/mL; half-life ([1]; read-out: T1/2 (converted)): 1.72 h; Tmax ([1]; read-out: Tmax): 0.5 h"
COc1cccc(CNCCCn2ccnc2)c1OCc1ccc(F)cc1 [compound 8],–,good inhibitory effects,inhibitory effects on U87,–,inhibition rate of HK2 activity (hexokinase 2 (HK2); [3]): 44%
Cc1c(CCC(=O)NC2CS(=O)(=O)CC2O)c(=O)oc2cc(O)ccc12 (stereo not shown) [compound 11],–,good inhibition effect; also recorded: good inhibitory effects,inhibitory effects on U87,29,–
"O=C(O)C(=O)CBr [3-BP, 3-bromopyruvic acid, reference compound]",17,–,–,–,–
COc1ccccc1OCC(=O)NNC(=O)CCCC(=O)NNC(=O)COc1ccccc1OC [compound 21],–,good inhibitory effects,inhibitory effects on U87,25,–
